This is an account of results in ChEMBL document CHEMBL3091327, “3',4'-Bis-difluoromethoxycinnamoylanthranilate (FT061): an orally-active antifibrotic agent that reduces albuminuria in a rat model of progressive diabetic nephropathy” (Bioorg Med Chem Lett, 2013).

Active and inactive are the calls of the source. The rule behind the calls is not given here.

Data set [1] in a line: Antifibrotic activity in rat renal mesangial cells assessed as inhibition of TGF-beta1-induced [3H]-proline incorporation into collagen at 10 uM treated 4 hrs before TGF-beta1 addition measured after 44 hrs by liquid scintillation counting. Type of data set: functional, cell-based.
Data set [2] in a line: Drug level in Sprague-Dawley rat urine at 20 mg/kg, po. Type of data set: ADME, organism-based. Also noted: dose 20 mg/kg, route oral. As to conditions: read-out: Drug uptake.
Data set [3] in a line: (§1) Cmax in Sprague-Dawley rat at 20 mg/kg, po. On the set-up: dose 20 mg/kg, route oral. As to conditions: Sprague-Dawley, in vivo. Type of data set: ADME, organism-based.
Data set [4] in a line: Oral bioavailability in Sprague-Dawley rat at 20 mg/kg. Type of data set: ADME, organism-based. The settings on record: in vivo.
Data set [5] in a line: Apparent half life in Sprague-Dawley rat at 5 mg/kg, iv. Also noted: dose 5 mg/kg, route intravenous. The settings on record: in vivo, read-out: t1/2(app) (converted). Type of data set: ADME, organism-based.
Data set [6] can be described thus: (§2) Tmax in Sprague-Dawley rat at 20 mg/kg, po. The class given is ADME, organism-based. On the set-up: dose 20 mg/kg, route oral. As to conditions: Sprague-Dawley, in vivo.
Data set [7] relates to Rattus norvegicus. Briefly: Reduction of albuminuria in (mRen-2)27 rat streptozotocin-induced diabetic nephropathy model assessed as reduction of albumin level in urine at 400 mg/kg, po qd for 8 weeks administered 8 weeks post-streptozotocin treatment by radioimmunoassay. Type of data set: functional, organism-based. Also noted: dose 400 mg/kg.
Data set [8] in a line: Volume of distribution at steady state in Sprague-Dawley rat at 5 mg/kg, iv. The class given is ADME, organism-based. On the set-up: dose 5 mg/kg, route intravenous. As to conditions: in vivo, read-out: Vdss.
The nature of data set [9]: Plasma clearance in Sprague-Dawley rat at 5 mg/kg, iv. Type of data set: ADME, organism-based. On the set-up: dose 5 mg/kg, route intravenous.
Data set [10] in a line: (§3) AUC (0 to infinity) in Sprague-Dawley rat at 20 mg/kg, po. The class given is ADME, organism-based, Plasma. Also noted: dose 20 mg/kg, route oral, time infinity. The settings on record: Sprague-Dawley, plasma.
Data set [11] can be described thus: Drug level in Sprague-Dawley rat urine at 5 mg/kg, iv. As to conditions: read-out: Drug uptake. Type of data set: ADME, organism-based. On the set-up: dose 5 mg/kg, route intravenous.
A short description of data set [12]: (§4) Apparent half life in Sprague-Dawley rat at 20 mg/kg, po. The class given is ADME, organism-based. Also noted: dose 20 mg/kg, route oral. The settings on record: Sprague-Dawley, in vivo.
Data set [13] can be described thus: AUC (0 to infinity) in Sprague-Dawley rat at 5 mg/kg, iv. The class given is ADME, organism-based. Also noted: time infinity, dose 5 mg/kg, route intravenous. The settings on record: plasma.
Data set [14] can be described thus: Antifibrotic activity in rat renal mesangial cells assessed as inhibition of TGF-beta1-induced [3H]-proline incorporation into collagen at 30 uM treated 4 hrs before TGF-beta1 addition measured after 44 hrs by liquid scintillation counting. Type of data set: functional, cell-based.
For data set [15], the system named is Rattus norvegicus. Briefly: Renal toxicity in Sprague-Dawley rat assessed as effect on serum urate level at 50 to 1000 mg/kg, po bid for 2 weeks. Type of data set: organism-based. Also noted: dose 50-1000 mg/kg, route oral. The settings on record: in vivo, 336 h.
Data set [16] deals with Rattus norvegicus. Described as §1. The class given is ADME, organism-based. On the set-up: dose 20 mg/kg, route oral. As to conditions: in vivo.
Data set [17] has as its system Rattus norvegicus. The description is as §2. Type of data set: ADME, organism-based. On the set-up: dose 20 mg/kg, route oral. The settings on record: in vivo.
For data set [18], the system named is Rattus norvegicus. Briefly: Reduction of albuminuria in (mRen-2)27 rat streptozotocin-induced diabetic nephropathy model assessed as reduction of albumin level in urine at 200 mg/kg, po qd for 8 weeks administered 8 weeks post-streptozotocin treatment by radioimmunoassay. Type of data set: functional, organism-based. On the set-up: dose 200 mg/kg.
Data set [19] deals with Rattus norvegicus. Briefly: Hepatotoxicity in Sprague-Dawley rat assessed as effect on serum bilirubin level at 50 to 1000 mg/kg, po bid for 2 weeks. The class given is toxicity, organism-based. On the set-up: dose 50-1000 mg/kg, route oral. As to conditions: in vivo, 336 h.
In data set [20] the test system is Liver microsome. Briefly: Metabolic stability in human liver microsomes at 1 uM after 60 mins by LC/MS analysis in presence of NADPH. As to conditions: 1 h. Type of data set: ADME. (Liver microsomes are vesicles of endoplasmic reticulum, rich in cytochrome P450 enzymes.)
The test system of data set [21] is Rattus norvegicus. The data set is described as §3. Type of data set: ADME, organism-based, Plasma. On the set-up: dose 20 mg/kg, route oral, time infinity. As to conditions: in vivo.
Data set [22] concerns Rattus norvegicus. Put plainly: Hepatotoxicity in Sprague-Dawley rat assessed as effect on serum ALT level at 50 to 1000 mg/kg, po bid for 2 weeks. The class given is toxicity, organism-based. Also noted: dose 50-1000 mg/kg, route oral. As to conditions: in vivo, 336 h.
The subject of data set [23] is Rattus norvegicus. Described as §4. The class given is ADME, organism-based. Also noted: dose 20 mg/kg, route oral. As to conditions: in vivo.
The test system of data set [24] is Rattus norvegicus. Put plainly: Renal toxicity in Sprague-Dawley rat assessed as effect on serum creatinine level at 50 to 1000 mg/kg, po bid for 2 weeks. Type of data set: organism-based. Also noted: dose 50-1000 mg/kg, route oral. As to conditions: in vivo, 336 h.

Usually inhibition stands for the percentage by which the read-out fell short of the control. Broadly, the Cmax is the maximum level reached in the sampled fluid or tissue. What is called Tmax is the time at which the peak concentration occurs. What is called clearance is the rate of elimination divided by the concentration. Higher therefore signals efficient removal. The term AUC(0-inf) denotes the area under the concentration-time curve extrapolated to infinity. The low end stands for low exposure, the high end for high exposure. One may read the AUC as the area under the concentration-time curve, a measure of exposure.

For the molecule `O=C(/C=C/c1ccc(OC(F)F)c(OC(F)F)c1)Nc1ccc(Br)cc1C(=O)O`, in data set [1], the inhibition came to 100%.

Regarding `O=C(/C=C/c1ccc(OC(F)(F)F)c(F)c1)Nc1ccccc1C(=O)O`, the inhibition in [1] is 55%.

`COc1ccc(/C=C/C(=O)Nc2ccccc2C(=O)O)cc1OC` [TRANILAST]: the dose excreted in data set [2] came to 1.9%; in data set [11], 2.4%. In addition, the Cmax in [3] was 118 µM. Moreover, the bioavailability in data set [4] is 125%. In addition, the half-life in data set [5] is 3.1 h; in [12], 3.3 h. Further, the Tmax in data set [6] was 1.75 h. For the same molecule, the outcome in [7] was Active. The Vd in data set [8] was 0.3 L/kg. Further, the clearance in [9] was found to be 2 mL/min/kg. Further, the AUC(0-inf) in [10] was 652 µM·h; in data set [13], 110 µM·h. The inhibition was determined as 15% in [1] and 40% in data set [14].

In the case of `C/C(=C\c1ccc(OC(F)F)c(OC(F)F)c1)C(=O)Nc1ccccc1C(=O)O`, the inhibition in data set [1] stood at 100%.

Turning to `O=C(/C=C/c1ccc(OC(F)(F)C(F)F)cc1)Nc1ccccc1C(=O)O`, the inhibition in data set [1] amounted to 84%.

Consider `COc1ccc(/C=C/C(=O)Nc2ccccc2C(=O)O)cc1OC(F)(F)F`, for which the inhibition in data set [1] was 92%; in [14], 100%.

`O=C(/C=C/c1ccc(OC(F)F)c(OC(F)F)c1)Nc1ccccc1C(=O)O`: the dose excreted in data set [2] turned out to be 1.7%; in data set [11], 3.3%. Besides, the Activity result in data set [15], in data set [19], in data set [22] and in data set [24] was “Non-toxic” throughout. In addition, the highest level in [16] (Cmax) was 200 µM. In addition, the bioavailability in [4] was 73%. The half-life in data set [5] was 7.8 h. In addition, the Tmax in data set [17] stood at 2.5 h. In [18], the result was Active. For the same molecule, the Vd in data set [8] was found to be 0.1 L/kg. In [9], this molecule had a clearance of 0.2 mL/min/kg. Further, in data set [20], the Stability result is on record as “Stable”. This molecule had an AUC in data set [21] of 2691 µM·h. In addition, the t1/2(app) in data set [23] was 5.4 h. Also, the inhibition in data set [1] is 60%; in [14] it was 100%. Moreover, the AUC(0-inf) in data set [13] is 894 µM·h.

Regarding `COc1cc(/C=C/C(=O)Nc2ccccc2C(=O)O)cc(OC)c1OC(F)F`, the inhibition in data set [1] was found to be 24%; in data set [14] it was 80%.

With `O=C(O)c1ccccc1NC(=O)C1CC1c1ccc(OC(F)F)c(OC(F)F)c1` (centres undefined), the inhibition stood at 70% in [1] and 90% in data set [14].

In the case of `O=C(/C=C/c1ccc2c(c1)OC(F)(F)O2)Nc1ccccc1C(=O)O`, the inhibition in [14] was 0%.

On to `C#CCOc1cc(/C=C/C(=O)Nc2ccccc2C(=O)O)ccc1OC(F)F`, for which the inhibition came out at 73% in [1] and 100% in data set [14].

For `COc1cc(/C=C/C(=O)Nc2ccccc2C(=O)O)ccc1OC(F)F`, the values for the inhibition in data set [1] and in [14] were 20% and 70%, respectively.

Consider `O=S(=O)(/C=C/c1ccc(OC(F)F)c(OC(F)F)c1)Nc1ccccc1`, for which the inhibition in data set [1] worked out at 0%.

As to `C/C(=C\C(=O)Nc1ccccc1C(=O)O)c1ccc(OC(F)F)c(OC(F)F)c1`, the inhibition in data set [1] turned out to be 100%.

`C#CCOc1cc(/C=C/C(=O)Nc2ccccc2C(=O)O)ccc1OC`: the inhibition in data set [1] turned out to be 20%; in data set [14] it was 55%.

With `Nc1ccccc1NC(=O)/C=C/c1ccc(OC(F)F)c(OC(F)F)c1`, the inhibition in data set [1] amounted to 57%; in [14], 79%.
